The data set in a line: In vitro release of QLNWD, dialysis bag method in enzyme-free SGF/SIF. The format is in vitro ADME. Conditions: 37 °C, 120 rpm. The protocol:
The release profile of QLNWD in NPs was evaluated according to a published dialysis method. A 2 mL aliquot of QLNWD (1 mg/mL) nanoparticle solution was introduced into a presoaked dialysis bag (molecular weight cutoff of 3500 Da). The bag was immersed in 20 mL of simulated gastric fluid (SGF, enzyme-free), which had been preheated at 37 °C for 30 min and adjusted to pH 2. The entire system was incubated at 37 °C under continuous agitation at 120 rpm. After 2 h, the pH was adjusted to 7.0, and 20 mL of simulated intestinal fluid (SIF, enzyme-free), also preheated at 37 °C for 30 min and adjusted to pH 7.0, was added to the system. At predetermined intervals, 1 mL of the release medium was sampled and immediately replenished with an equal volume of fresh SGF/SIF. Samples without QLNWD served as the blank control, and the cumulative release was determined as follows:(2) Cumulative release (%)=(V0Cn+Ve∑1n−1Cn−1)/total QLNWD content×100 where V0 refers to the total volume of simulated gastric or intestinal fluid, Cn refers to the concentration of QLNWD at the nth time, and Ve refers to the volume of each sample.

Ends that are not written are not given here.

Take QLNWD [QLNWD, Gln-Leu-Asn-Trp-Asp]: the “Cumulative release of QLNWD” value (12 h: 2 h enzyme-free SGF pH 2, then enzyme-free SIF pH 7.0, dialysis bag 3500 Da) amounted to 79.1% and the “Cumulative release of QLNWD” value (initial 2 h in enzyme-free SGF pH 2, dialysis bag 3500 Da, QLNWD 1 mg/mL) stood at 38.1%.
